Where “and” joins values, the source holds several entries; their conditions need not be identical. Equal values may be shown once. Each block holds one compound with its values, some of them ahead of it.
Assays:
Assay type in all cases: physicochemical
[1] = Rate of detritylation and degradation of 5'-trityldeoxynucleosides using ZnBr2 at room temperature (Table III); details: for Detritylation time: 100% detritylation; for Detritylation %: <1 min
Description: (§1) The procedure merely requires contacting the reactants preferably in a reaction solvent and detritylation occurs within short reaction times. The Lewis acid is normally suspended in the reaction solvent and the solvent is usually water-free to prevent reaction with the Lewis acid to form protic acids. In present experience, nitromethane is the preferred solvent although a variety of other solvents can be used, e.g. dioxane and tetrahydrofuran and mixtures of such solvents with each other and other solvents such as acetone, methylene chloride, and the like.
The results obtained with various tritylthymidines at room temperature with zinc bromide is give in Table III.
The Rate of Detritylation and Degradation of 5'-
Trityldeoxynucleosides Using ZnBr2 at Room

[2] = Rate of detritylation of various tritylthymidines using saturated ZnBr2 in nitromethane at 0° C. (Table IV); details: for % Detritylation: at the time of the same line (1, 10 or 30 min); for Detritylation time: time for the % detritylation of the same line
Description: as §1
and at 0° C. in Table IV.
The Rate of Detritylation of Various Tritylthymidines
Using Saturated ZnBr2 in Nitromethane at 0° C.

[3] = Protic acid hydrolysis rates of triarylmethyl groups attached to the 5'-hydroxyl of deoxynucleosides (Table VIII); details: 2% toluenesulfonic acid in chloroform:methanol (7:3)
Experimental: The 5'-triarylmethyldeoxynucleosides were treated with protic and Lewis acids using carefully controlled conditions. The results of these studies are also recorded in Tables VII and VIII. […] The rates are more variable with protic acids.
^1 Reaction conditions were 2% toluenesulfonic acid in
chloroform:methanol (7:3). Aliquots were removed from the reaction
solution, quenched with ammonium acetate and analyzed visually after tlc
and exposure to HCl vapors. Time points were taken at 15, 30, 45, 60, 90,

[4] = Rate of detritylation and depurination using various solutions (Table II); details: for Detritylation time: 100% detritylation
Description: A particularly preferred embodiment of the present invention is the detritylation of the 5'-O trityl nucleosides, deoxynucleotides, oligonucleotides, oligodeoxynucleotides, polynucleotides and polydeoxynucleotides using a Lewis acid, particularly zinc bromide, although other Lewis acids can also be employed, e.g. titanium tetrachloride. […] The process is also specific for 5'-O-trityl and thus provides a very practical procedure to permit production of 3'-O-trityl blocked nucleosides by reaction with the 3'-O and 5'-O ditritylated compound.
as §1
The Rate of Detritylation and Depurination of 5'-
Dimethoxytrityl-N--benzoyldeoxyadenosine Using
*All depurination results summarized in this communication were obtained
by analyzing reaction mixtures using reverse phase high pressure liquid
chromatography. Estimates of detritylation times were by thin layer
**A nitromethane solution saturated with ZnBr2 is approximately 0.1

[5] = Spectral characteristics of selected triarylmethyl alcohols (Table IX); details: saturated ZnBr2 nitromethane solution; for Extinction Coefficient: at the λ maximum of the same line
Experimental: of selected triarylmethyl alcohols.
^2 All spectra were taken in a saturated ZnBr2 nitromethane
solution. All spectra were recorded on a Carey model 21, scanning from 35

SMILES: COc1ccc(C(OC[C@H]2O[C@@H](n3cc(C)c(=O)[nH]c3=O)C[C@@H]2O)(c2ccccc2)c2ccc(OC)cc2)cc1 [5'-Dimethoxytritylthymidine]
Degradation time [1]: 24 h
Detritylation time [1]: < 1 min
Detritylation % [1]: 100%
% Detritylation [2]: 50%
Detritylation time [2]: 1 min
Time to Complete Hydrolysis [3]: 30 s

SMILES: COc1ccc(C(OC[C@H]2O[C@@H](n3cnc4c(=O)[nH]c(NC(=O)C(C)C)nc43)C[C@@H]2O)(c2ccccc2)c2ccc(OC)cc2)cc1 [5'-O-dimethoxytrityl-N-isobutyryldeoxyguanosine]
Degradation time [1]: 50 h
Detritylation time [1]: < 1 min
Detritylation % [1]: 100%
Time to Complete Hydrolysis [3]: 30 s

SMILES: Cc1cn([C@H]2C[C@H](O)[C@@H](COC(c3ccccc3)(c3ccccc3)c3ccccc3)O2)c(=O)[nH]c1=O [5'-Tritylthymidine]
% Detritylation [2]: 50%
Detritylation time [2]: 10 min

SMILES: COc1ccccc1C(O)(c1ccccc1)c1ccccc1OC [R1 = R2 = b; R3 = a]
λ Maximum(s) [5]: 423 nanometers and 503 nanometers and 586 nanometers

SMILES: COc1ccccc1C(OC[C@H]1O[C@@H](n2cc(C)c(=O)[nH]c2=O)C[C@@H]1O)(c1ccccc1OC)c1cccc2ccccc12 [R1 = R2 = b; R3 = n, T]
Time to Complete Hydrolysis [3]: 90 s
t1/2 in H+ [3]: 45 s

SMILES: OC(c1ccccc1)(c1ccc(F)cc1)c1cccc2ccccc12 (stereo not shown) [R1 = a; R2 = e; R3 = n]
λ Maximum(s) ([5]; listed as R1 = a, R2 = n, R3 = e): 577 nanometers and 421 nanometers

SMILES: Cc1ccc(C(O)(c2ccccc2)c2ccccc2)cc1 [R1 = h; R2 = R3 = a]
λ Maximum(s) [5]: 452 nanometers
Extinction Coefficient [5]: 42000 Molar^-1 cm^-1

SMILES: Cc1cn([C@H]2C[C@H](O)[C@@H](COC(c3ccccc3)(c3ccc(F)cc3)c3cccc4ccccc34)O2)c(=O)[nH]c1=O (stereo partly shown) [R1 = n; R2 = e; R3 = a, T]
Time to Complete Hydrolysis [3]: > 600 s
t1/2 in H+ [3]: 180 s

Continued, in another order:

Time to Complete Hydrolysis [3]: 30 s
Depurination time ([4]; 0.5% toluenesulfonic acid/CHCl3:CH3OH (7:3), 0° C., 50% depurination): 8 h
Detritylation time ([4]; 0.5% toluenesulfonic acid/CHCl3:CH3OH (7:3), 0° C.): 10 min
Detritylation % ([4]; 0.5% toluenesulfonic acid/CHCl3:CH3OH (7:3), 0° C., 10 min): 100%
Depurination % ([4]; 0.5% toluenesulfonic acid/CHCl3:CH3OH (7:3), 0° C., 8 hrs): 50%
Depurination time ([4]; 2% toluenesulfonic acid/CHCl3:CH3OH (7:3), 18° C., 50% depurination): 0.083 h
Detritylation time ([4]; 2% toluenesulfonic acid/CHCl3:CH3OH (7:3), 18° C.): < 1 min
Depurination % ([4]; 2% toluenesulfonic acid/CHCl3:CH3OH (7:3), 18° C., 5 min): 50%
Detritylation % ([4]; 2% toluenesulfonic acid/CHCl3:CH3OH (7:3), 18° C., <1 min): 100%
Detritylation time ([4]; satd. ZnBr2/CH3NO2, 0° C.): 10 min
Detritylation % ([4]; satd. ZnBr2/CH3NO2, 0° C., 10 min): 100%
Depurination % ([4]; satd. ZnBr2/CH3NO2, 0° C., 21 hrs): < 5%
Depurination time ([4]; satd. ZnBr2/CH3NO2, 0° C., <5% depurination): 21 h
Depurination time ([4]; satd. ZnBr2/CH3NO2, 18° C., 50% depurination): 10 h
Detritylation time ([4]; satd. ZnBr2/CH3NO2, 18° C.): < 1 min
Depurination % ([4]; satd. ZnBr2/CH3NO2, 18° C., 10 hrs): 50%
Detritylation % ([4]; satd. ZnBr2/CH3NO2, 18° C., <1 min): 100%
SMILES: COc1ccc(C(OC[C@H]2O[C@@H](n3cnc4c(NC(=O)c5ccccc5)ncnc43)C[C@@H]2O)(c2ccccc2)c2ccc(OC)cc2)cc1 [5'-O-dimethoxytrityl-N-benzoyldeoxyadenosine]

Degradation time [1]: 24 h
Detritylation time [1]: < 1 min
Detritylation % [1]: 100%
Time to Complete Hydrolysis [3]: 30 s
SMILES: COc1ccc(C(OC[C@H]2O[C@@H](n3ccc(NC(=O)c4ccccc4)nc3=O)C[C@@H]2O)(c2ccccc2)c2ccc(OC)cc2)cc1 [5'-O-dimethoxytrityl-N-benzoyldeoxycytidine]

Time to Complete Hydrolysis [3]: 45 s
t1/2 in H+ [3]: 15 s
SMILES: COc1ccccc1C(OC[C@H]1O[C@@H](n2cnc3c(=O)[nH]c(NC(=O)C(C)C)nc32)C[C@@H]1O)(c1ccccc1)c1ccccc1OC [R1 = R2 = b; R3 = a, G]

Time to Complete Hydrolysis [3]: 120 s
SMILES: COc1ccccc1C(OC[C@H]1O[C@@H](n2ccc(NC(=O)c3ccccc3)nc2=O)C[C@@H]1O)(c1ccccc1OC)c1cccc2ccccc12 [R1 = R2 = b; R3 = n, C]

λ Maximum(s) [5]: 586 nanometers
Extinction Coefficient [5]: 15500 Molar^-1 cm^-1
SMILES: COc1ccccc1C(O)(c1ccccc1OC)c1cccc2ccccc12 [R1 = R2 = b; R3 = n]

λ Maximum(s) [5]: 545 nanometers and 455 nanometers
SMILES: COc1ccc(C(O)(c2ccccc2)c2cccc3ccccc23)cc1 (stereo not shown) [R1 = a; R2 = c; R3 = n]
Extinction Coefficient [5]: 25000 Molar^-1 cm^-1 and 28000 Molar^-1 cm^-1

Time to Complete Hydrolysis [3]: 240 s
t1/2 in H+ [3]: 60 s
SMILES: Cc1ccc(C(OC[C@H]2O[C@@H](n3cnc4c(NC(=O)c5ccccc5)ncnc43)C[C@@H]2O)(c2ccccc2)c2ccccc2)cc1 [R1 = h; R2 = R3 = a, A]

Time to Complete Hydrolysis [3]: 45 s
t1/2 in H+ [3]: 30 s
SMILES: COc1ccc(C(OC[C@H]2O[C@@H](n3cc(C)c(=O)[nH]c3=O)C[C@@H]2O)(c2ccccc2)c2cccc3ccccc23)cc1 (stereo partly shown) [R1 = n; R2 = c; R3 = a, T]
